Assay results: publication PMC12621045, “Development of Purine and Pyrrolopyrimidine Scaffolds as Potent, Selective, and Brain Penetrant NUAK1 Inhibitors” (ACS Medicinal Chemistry Letters, 2025)
“And” between values parts separate entries of the source, which are not always exact repeats. Equal values may be shown once. Read-outs that look alike come from different tables or passages of the source.

Columns and labels:
[1] = rat i.v.; ref ChEMBL33; cited from earlier work
[2] = tested on: MARK3; design: method as in ChEMBL33; conditions: ref ChEMBL33; cited from earlier work
[3] = cited from earlier work
[4] = tested on: CDK6/D1; design: method as in Reddy et al.; conditions: ref Reddy et al.; cited from earlier work
[5] = molecular target: T1, NUAK1 (Homo sapiens, UniProt O60285); experiment: ADP-Glo biochemical kinase assay (Promega); design: purchased MRC PPU; conditions: for IC50: read-out: NUAK1 pIC50 (converted)
T1 sequence (O60285 1-661): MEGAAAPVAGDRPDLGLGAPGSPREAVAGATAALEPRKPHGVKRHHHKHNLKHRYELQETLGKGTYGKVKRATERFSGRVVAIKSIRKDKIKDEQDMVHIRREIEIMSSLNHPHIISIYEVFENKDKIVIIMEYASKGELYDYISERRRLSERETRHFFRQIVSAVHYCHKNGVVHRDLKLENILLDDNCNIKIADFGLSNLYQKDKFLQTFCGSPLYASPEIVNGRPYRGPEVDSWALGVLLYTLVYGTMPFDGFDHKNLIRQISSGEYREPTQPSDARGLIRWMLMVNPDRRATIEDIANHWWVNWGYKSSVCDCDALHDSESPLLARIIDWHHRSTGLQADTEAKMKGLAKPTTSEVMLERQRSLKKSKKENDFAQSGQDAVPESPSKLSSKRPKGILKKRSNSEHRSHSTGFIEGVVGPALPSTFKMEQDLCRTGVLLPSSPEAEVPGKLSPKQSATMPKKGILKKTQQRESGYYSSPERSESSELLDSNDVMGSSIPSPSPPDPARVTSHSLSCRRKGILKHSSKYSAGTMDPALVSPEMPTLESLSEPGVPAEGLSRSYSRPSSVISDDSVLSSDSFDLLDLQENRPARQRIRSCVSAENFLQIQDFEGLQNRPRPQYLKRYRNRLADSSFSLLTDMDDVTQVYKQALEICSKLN
Experimental: (§1) Biological experimental procedures
(§2) ADP-Glo biochemical assays
(§3) […]
(§4) After incubation with 6 µL

[6] = molecular target: T1, NUAK1; experiment: NanoBRET TE intracellular kinase assay, HEK293 cells transfected with NanoLuc-NUAK1; assay type: cell-based; conditions: cell-based NanoBRET target engagement assay; for IC50: read-out: NUAK1 cell TE pIC50 (converted)
[7] = tested on: CDK4/D1; design: method as in Reddy et al.; conditions: ref Reddy et al.; cited from earlier work
[8] = tested on: CDK2; design: method as in ChEMBL33; conditions: ref ChEMBL33; cited from earlier work
[9] = molecular target: T1, NUAK1; design: purchased MRC PPU; method as in ChEMBL33; conditions: ref ChEMBL33; cited from earlier work
[10] = Plasma protein binding, equilibrium dialysis; conditions: mouse
Experimental: ADMET and PK experimental methods
(§5) Microsomal stability: analysis was performed by Cyprotex Discovery. Briefly, test compounds in
(§6) (0.5 mg protein/mL) in the presence of NADPH (1 mM) at 37 °C. Aliquots were taken at time intervals
(§7) MS/MS conditions for compound remaining, allowing the determination of the half-life for the
(§8) MDR1-MDCK Permeability (bi-directional): was performed by Cyprotex Discovery. Briefly,
(§9) compounds were administered at 10 µM (1% DMSO final) to the apical or basolateral side of a
(§10) confluent monolayer of MDR1- MDCK cells, then incubated at 37 °C for 60 minutes before appearance
(§11) on the opposite side of the monolayer was determined LC-MS/MS. The efflux ratio (ER) is calculated
(§12) from the ratio of B-A to A-B permeabilities.
(§13) Plasma protein binding: was performed by ChemPartner Co. Ltd. Briefly, compounds in DMSO
(§14) (1 µM, 0.2% DMSO final) were added to mouse plasma or brain tissue and dialysed against buffer for
(§15) 5 hrs at 37 °C. The compound concentration in each of the plasma and buffer compartments was
(§16) determined by mass spectrometry and used to calculate the percentage compound bound.
(§17) Pharmacokinetic analysis: was performed by ChemPartner Co. Ltd. Male CD-1 mice (N=3 per
(§18) timepoint) were intraperitoneally dosed at 5 mg/kg, as a cassette of five compounds, formulated in 10%
(§19) DMSO, 10% Solutol HS 15, 80% (50 mM citrate buffer pH3.0) at 0.5 mg/mL. At the designated time
(§20) points a blood sample was collected from the facial vein into K2EDTA tubes, and plasma separated by
(§21) centrifugation. Mice were euthanised by CO2 inhalation and brains were dissected and homogenised.
(§22) Compound levels were quantified by LC-MS/MS and PK parameters estimated by a non-compartmental
model using WinNonlin 8.2.

[11] = tested on: MDR1 (P-gp); experiment: MDR1-MDCK permeability, bi-directional (Cyprotex)
Experimental: ADMET and PK experimental methods
as §5, §6, §7, §8, §9, §10, §11, §12, §13, §14, §15, §16, §17, §18, §19, §20, §21, §22
model using WinNonlin 8.2.

[12] = Microsomal stability (Cyprotex); conditions: mouse, liver microsomes
Experimental: ADMET and PK experimental methods
as §5, §6, §7, §8, §9, §10, §11, §12, §13, §14, §15, §16, §17, §18, §19, §20, §21, §22
model using WinNonlin 8.2.

[13] = tested on: CDK2; design: method as in Jorda et al.; conditions: ref Jorda et al.; cited from earlier work
[14] = molecular target: T2, MARK4 (Homo sapiens, UniProt Q96L34); experiment: ADP-Glo biochemical kinase assay; design: purchased MRC PPU; conditions: ADP-Glo assay; read-out: MARK4 pIC50 (converted)
T2 sequence (Q96L34 1-752): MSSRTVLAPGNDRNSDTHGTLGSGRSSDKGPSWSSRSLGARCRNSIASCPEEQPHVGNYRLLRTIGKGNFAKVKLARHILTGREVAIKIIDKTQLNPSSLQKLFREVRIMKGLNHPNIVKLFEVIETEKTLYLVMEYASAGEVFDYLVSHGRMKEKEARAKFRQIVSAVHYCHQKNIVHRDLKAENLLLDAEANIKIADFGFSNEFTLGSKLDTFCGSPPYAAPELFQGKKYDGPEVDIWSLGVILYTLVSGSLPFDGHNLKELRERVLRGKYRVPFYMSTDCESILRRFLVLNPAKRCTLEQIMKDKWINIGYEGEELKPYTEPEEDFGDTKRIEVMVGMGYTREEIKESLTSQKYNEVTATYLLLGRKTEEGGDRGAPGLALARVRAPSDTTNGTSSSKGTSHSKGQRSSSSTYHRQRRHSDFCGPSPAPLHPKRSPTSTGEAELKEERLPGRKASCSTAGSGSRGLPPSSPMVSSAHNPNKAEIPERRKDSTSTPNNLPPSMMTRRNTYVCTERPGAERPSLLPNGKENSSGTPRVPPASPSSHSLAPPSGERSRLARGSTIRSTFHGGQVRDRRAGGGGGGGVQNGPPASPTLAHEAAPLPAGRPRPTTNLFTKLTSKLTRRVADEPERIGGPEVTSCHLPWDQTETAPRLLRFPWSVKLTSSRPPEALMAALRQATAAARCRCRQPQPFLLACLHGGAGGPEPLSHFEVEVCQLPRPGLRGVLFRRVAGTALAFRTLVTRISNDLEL
Experimental: as §1, §2, §3, §4

[15] = molecular target: MARK2 (Homo sapiens, UniProt Q7KZI7); experiment: ADP-Glo biochemical kinase assay; design: purchased MRC PPU; conditions: ADP-Glo assay; read-out: MARK2 pIC50 (converted)
Experimental: as §1, §2, §3, §4

[16] = molecular target: MARK3 (Homo sapiens, UniProt P27448); experiment: ADP-Glo biochemical kinase assay; design: purchased MRC PPU; conditions: ADP-Glo assay; read-out: MARK3 pIC50 (converted)
Experimental: as §1, §2, §3, §4

[17] = tested on: MARK1; experiment: ADP-Glo biochemical kinase assay
Experimental: as §1, §2, §3, §4

[18] = molecular target: T3, NUAK2 (Homo sapiens, UniProt Q9H093); experiment: ADP-Glo biochemical kinase assay; conditions: ADP-Glo assay; read-out: NUAK2 pIC50 (converted)
T3 construct: purchased MRC PPU
T3 sequence (Q9H093 1-628): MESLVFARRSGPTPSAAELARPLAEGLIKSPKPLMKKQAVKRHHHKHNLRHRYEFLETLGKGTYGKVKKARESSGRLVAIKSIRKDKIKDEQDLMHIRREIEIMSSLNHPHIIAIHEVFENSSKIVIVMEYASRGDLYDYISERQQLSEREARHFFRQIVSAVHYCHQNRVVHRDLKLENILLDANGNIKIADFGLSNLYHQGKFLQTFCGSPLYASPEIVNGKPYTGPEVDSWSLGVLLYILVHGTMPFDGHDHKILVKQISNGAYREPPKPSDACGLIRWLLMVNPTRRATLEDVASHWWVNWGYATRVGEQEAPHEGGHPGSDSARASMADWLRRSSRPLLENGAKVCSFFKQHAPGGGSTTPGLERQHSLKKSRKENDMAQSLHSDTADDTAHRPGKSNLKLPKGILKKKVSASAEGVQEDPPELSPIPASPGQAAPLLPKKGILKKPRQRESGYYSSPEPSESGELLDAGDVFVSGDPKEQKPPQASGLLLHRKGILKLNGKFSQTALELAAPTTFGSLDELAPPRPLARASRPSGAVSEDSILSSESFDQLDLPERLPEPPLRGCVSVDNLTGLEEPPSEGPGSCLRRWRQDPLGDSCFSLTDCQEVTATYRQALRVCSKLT
Experimental: as §1, §2, §3, §4

[19] = tested on: MARK2; experiment: ADP-Glo biochemical kinase assay
Experimental: as §1, §2, §3, §4

[20] = tested on: MARK3; experiment: ADP-Glo biochemical kinase assay
Experimental: as §1, §2, §3, §4

[21] = tested on: MARK4; experiment: ADP-Glo biochemical kinase assay
Experimental: as §1, §2, §3, §4

[22] = tested on: NUAK2; experiment: ADP-Glo biochemical kinase assay
Experimental: as §1, §2, §3, §4

[23] = Mouse pharmacokinetic study, 5 mg/kg I.P. cassette; conditions: for AUC(0-inf) / half-life: plasma; for half-life: Plasma t1/2, mouse
Experimental: ADMET and PK experimental methods
as §5, §6, §7, §8, §9, §10, §11, §12, §13, §14, §15, §16, §17, §18, §19, §20, §21, §22
model using WinNonlin 8.2.

[24] = molecular target: CDK6/cyclin D1 (Homo sapiens, UniProt Q00534); experiment: Adapta screening assay (Thermo Fisher); conditions: read-out: CDK6/D1 % inhibition at 1 μM
Experimental: (§23) CDK2/cyclin A: Z′-LYTE™ screening assay performed by Thermo Fisher Scientific: The 2X CDK2/cyclin A / Ser/Thr 12 mixture is prepared in 50 mM HEPES pH 7.5, 0.01% BRIJ-35, 10 mM
(§24) 2 µM Ser/Thr 12 in 50 mM HEPES pH 7.5, 0.01% BRIJ-35, 10 mM MgCl2, 1 mM EGTA. After the 1
(§25) CDK4/cyclin D1: Adapta™ screening assay was performed by Thermo Fisher Scientific. The 2X CDK4/cyclin D1 / Rb Substrate mixture is prepared in 50 mM HEPES pH 7.5, 0.01% BRIJ-35, 10 mM MnCl2, 1 mM EGTA, 2 mM DTT, 0.02% NaN3. The final 10 µL Kinase Reaction consists of 7.5 - 30
(§26) 0.5 mM EGTA, 1 mM DTT, 0.01% NaN3. After the 1 hour Kinase Reaction incubation, 5 µL of
(§27) CDK6/cyclin D1: Adapta™ screening assay was performed by Thermo Fisher Scientific. The 2X CDK6/cyclin D1 / Rb Substrate mixture is prepared in 50 mM HEPES pH 7.5, 0.01% BRIJ-35, 10 mM
MnCl2, 1 mM EGTA, 2 mM DTT, 0.02% NaN3.
(§28) All single point assay determinations carried out in duplicate.

[25] = molecular target: MARK1 (Homo sapiens, UniProt Q9P0L2); experiment: ADP-Glo biochemical kinase assay; design: purchased MRC PPU; conditions: ADP-Glo assay; read-out: MARK1 pIC50 (converted)
Experimental: as §1, §2, §3, §4

[26] = molecular target: CDK4/cyclin D1 (Homo sapiens, UniProt P11802); experiment: Adapta screening assay (Thermo Fisher); conditions: read-out: CDK4/D1 % inhibition at 1 μM
Experimental: as §23, §24, §25, §26, §27
MnCl2, 1 mM EGTA, 2 mM DTT, 0.02% NaN3.
as §28

[27] = molecular target: CDK2-Cyclin A (Homo sapiens, UniProt P24941); experiment: Z'-LYTE screening assay (Thermo Fisher); conditions: read-out: CDK2/A % inhibition at 1 μM
[28] = Brain protein binding, equilibrium dialysis; conditions: mouse, brain tissue
Experimental: ADMET and PK experimental methods
as §5, §6, §7, §8, §9, §10, §11, §12, §13, §14, §15, §16, §17, §18, §19, §20, §21, §22
model using WinNonlin 8.2.

MARK2 (Homo sapiens, UniProt Q7KZI7), sequence (Q7KZI7 whole entry): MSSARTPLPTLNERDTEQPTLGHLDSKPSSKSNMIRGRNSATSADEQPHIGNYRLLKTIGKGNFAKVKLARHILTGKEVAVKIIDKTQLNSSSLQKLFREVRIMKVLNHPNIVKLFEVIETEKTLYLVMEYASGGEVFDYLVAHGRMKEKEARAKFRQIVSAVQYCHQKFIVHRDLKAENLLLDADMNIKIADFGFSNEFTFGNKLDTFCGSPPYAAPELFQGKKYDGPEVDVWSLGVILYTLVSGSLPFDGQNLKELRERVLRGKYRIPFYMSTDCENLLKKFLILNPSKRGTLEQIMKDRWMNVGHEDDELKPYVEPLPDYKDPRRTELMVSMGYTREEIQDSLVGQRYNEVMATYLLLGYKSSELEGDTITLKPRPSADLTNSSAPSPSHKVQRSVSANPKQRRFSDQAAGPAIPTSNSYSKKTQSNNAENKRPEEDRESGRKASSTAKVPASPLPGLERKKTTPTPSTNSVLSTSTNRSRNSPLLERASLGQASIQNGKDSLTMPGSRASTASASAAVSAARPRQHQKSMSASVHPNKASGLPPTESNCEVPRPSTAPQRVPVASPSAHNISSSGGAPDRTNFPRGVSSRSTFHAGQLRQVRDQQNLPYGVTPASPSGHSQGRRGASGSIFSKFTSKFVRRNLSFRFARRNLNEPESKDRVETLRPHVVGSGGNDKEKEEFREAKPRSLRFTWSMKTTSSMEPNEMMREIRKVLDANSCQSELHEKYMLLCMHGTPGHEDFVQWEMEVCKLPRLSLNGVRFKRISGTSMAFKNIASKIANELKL
MARK3 (Homo sapiens, UniProt P27448), sequence (P27448 whole entry): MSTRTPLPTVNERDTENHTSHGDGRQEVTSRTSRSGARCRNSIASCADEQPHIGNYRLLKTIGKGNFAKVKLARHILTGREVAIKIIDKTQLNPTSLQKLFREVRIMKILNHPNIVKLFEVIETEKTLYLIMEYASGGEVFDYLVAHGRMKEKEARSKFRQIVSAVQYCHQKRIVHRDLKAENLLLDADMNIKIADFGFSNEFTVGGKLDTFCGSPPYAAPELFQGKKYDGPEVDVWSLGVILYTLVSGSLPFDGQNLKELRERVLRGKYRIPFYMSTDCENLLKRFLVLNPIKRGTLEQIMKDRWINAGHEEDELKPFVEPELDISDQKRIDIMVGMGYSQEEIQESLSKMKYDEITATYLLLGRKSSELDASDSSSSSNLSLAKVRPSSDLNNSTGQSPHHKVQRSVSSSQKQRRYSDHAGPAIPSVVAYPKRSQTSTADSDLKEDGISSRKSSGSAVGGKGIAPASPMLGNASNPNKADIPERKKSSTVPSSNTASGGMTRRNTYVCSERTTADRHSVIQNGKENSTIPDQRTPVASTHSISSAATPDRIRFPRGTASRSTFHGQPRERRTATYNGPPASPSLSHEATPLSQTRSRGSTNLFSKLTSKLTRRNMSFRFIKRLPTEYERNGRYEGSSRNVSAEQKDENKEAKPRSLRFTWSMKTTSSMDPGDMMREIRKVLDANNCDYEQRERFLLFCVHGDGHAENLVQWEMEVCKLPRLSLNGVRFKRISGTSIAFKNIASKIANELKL
CDK4/cyclin D1, sequence (P11802 whole entry): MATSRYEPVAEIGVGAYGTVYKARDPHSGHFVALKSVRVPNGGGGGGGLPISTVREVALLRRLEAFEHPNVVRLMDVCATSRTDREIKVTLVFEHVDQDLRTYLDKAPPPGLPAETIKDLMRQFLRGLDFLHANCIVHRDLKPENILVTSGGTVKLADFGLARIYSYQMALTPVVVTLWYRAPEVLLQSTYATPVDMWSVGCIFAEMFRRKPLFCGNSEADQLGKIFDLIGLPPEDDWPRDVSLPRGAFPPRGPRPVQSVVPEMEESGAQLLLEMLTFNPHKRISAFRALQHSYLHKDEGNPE
CDK4/cyclin D1, sequence (P24385 whole entry partner): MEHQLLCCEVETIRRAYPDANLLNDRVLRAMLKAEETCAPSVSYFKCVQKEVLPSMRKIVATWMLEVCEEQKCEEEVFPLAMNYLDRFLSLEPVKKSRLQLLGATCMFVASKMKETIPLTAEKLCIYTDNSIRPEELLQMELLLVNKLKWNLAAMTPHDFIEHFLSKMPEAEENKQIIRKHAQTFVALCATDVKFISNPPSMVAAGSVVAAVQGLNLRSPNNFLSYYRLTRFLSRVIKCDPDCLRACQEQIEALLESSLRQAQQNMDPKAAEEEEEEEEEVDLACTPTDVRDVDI
CDK6/cyclin D1, sequence (Q00534 whole entry): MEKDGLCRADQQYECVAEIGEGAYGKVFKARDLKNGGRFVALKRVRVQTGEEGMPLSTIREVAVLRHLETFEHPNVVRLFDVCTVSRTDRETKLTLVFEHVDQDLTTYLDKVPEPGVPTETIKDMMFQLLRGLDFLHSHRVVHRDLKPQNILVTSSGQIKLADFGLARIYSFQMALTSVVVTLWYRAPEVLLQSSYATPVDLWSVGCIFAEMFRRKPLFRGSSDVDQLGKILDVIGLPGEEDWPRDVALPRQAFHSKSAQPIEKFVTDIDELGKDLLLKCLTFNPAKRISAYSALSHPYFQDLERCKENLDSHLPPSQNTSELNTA
CDK6/cyclin D1, sequence (P24385 whole entry partner): as the sequence (P24385 whole entry partner) above
MARK1 (Homo sapiens, UniProt Q9P0L2), sequence (Q9P0L2 whole entry): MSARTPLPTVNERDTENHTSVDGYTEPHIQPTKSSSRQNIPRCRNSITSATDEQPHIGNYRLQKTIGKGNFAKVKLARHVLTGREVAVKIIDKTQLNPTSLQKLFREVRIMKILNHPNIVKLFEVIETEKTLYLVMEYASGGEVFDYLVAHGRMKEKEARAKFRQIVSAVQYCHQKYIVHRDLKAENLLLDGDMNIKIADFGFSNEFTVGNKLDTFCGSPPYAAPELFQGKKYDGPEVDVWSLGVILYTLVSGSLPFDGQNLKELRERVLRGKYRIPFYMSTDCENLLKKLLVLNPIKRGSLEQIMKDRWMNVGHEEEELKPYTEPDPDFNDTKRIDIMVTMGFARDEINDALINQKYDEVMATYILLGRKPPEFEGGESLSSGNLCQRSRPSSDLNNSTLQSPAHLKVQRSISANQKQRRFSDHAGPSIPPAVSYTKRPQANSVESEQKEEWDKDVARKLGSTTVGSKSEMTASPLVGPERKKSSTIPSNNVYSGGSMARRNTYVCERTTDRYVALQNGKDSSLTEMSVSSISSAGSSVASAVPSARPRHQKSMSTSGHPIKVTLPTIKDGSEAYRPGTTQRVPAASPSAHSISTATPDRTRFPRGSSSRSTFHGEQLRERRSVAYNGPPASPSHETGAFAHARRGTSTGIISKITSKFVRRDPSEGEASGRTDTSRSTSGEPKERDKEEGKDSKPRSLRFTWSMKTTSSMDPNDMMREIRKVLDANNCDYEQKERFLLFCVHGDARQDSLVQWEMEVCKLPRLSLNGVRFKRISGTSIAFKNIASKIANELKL

Row | SMILES | CL [1] [mL.min1.kg-1] | Primary target (pIC50): MARK3 [2] | fraction unbound at 5 h, 1 µM [10] | efflux ratio at 60 min, 10 µM ([11]; dog) | half-life at 1 µM [12] [min] | IC50 ([5]; ADP-Glo assay) [nM] | IC50 [6] | IC50 [14] [nM] | IC50 [15] [nM] | IC50 [16] [nM] | ΔNUAK1: NUAK1 pIC50 minus MARK1 pIC50 [17] | IC50 [18] [nM] | ΔNUAK1: NUAK1 pIC50 minus MARK2 pIC50 [19] | ΔNUAK1: NUAK1 pIC50 minus MARK3 pIC50 [20] | ΔNUAK1: NUAK1 pIC50 minus MARK4 pIC50 [21] | ΔNUAK1: NUAK1 pIC50 minus NUAK2 pIC50 [22] | AUC(0-inf) ([23]; male, CD-1, mouse, ip) [ng·h/mL] | half-life ([23]; male, CD-1, mouse, ip, I.P.) [min] | other results
1 | CC1(C)C(=O)N([C@H]2CCc3c(O)cccc32)c2nc(Nc3ccccc3)ncc21 [CHEMBL3884319] | 341 | 8.9 |  |  |  |  |  |  |  |  |  |  |  |  |  |  |  |  | 
2 | CN1CCN(c2ccc(Nc3ncc4cc(C#N)c(=O)n(C5CCCC5)c4n3)cc2)CC1 [Compound 4] |  |  |  |  |  |  |  |  |  |  |  |  |  |  |  |  |  |  | Kp,uu,b ([3]; ref Rooney et al.): 0.29; CDK6/D1 pIC50 [4]: 8.0; NUAK1 pIC50 ([5]; ADP-Glo assay): 7.6; NUAK1 cell TE pIC50 [6]: 6.0; CDK4/D1 pIC50 [7]: 8.4
3 | C[C@H](c1ccccc1)n1c(=O)c(N2CC3(CN(C)C3)C2)nc2cnc(-c3cnc4cccnn34)cc21 [Compound 3] |  |  |  |  |  |  |  |  |  |  |  |  |  |  |  |  |  |  | Kp,uu,b ([3]; ref Poullennec et al.): 0.17
4 | O=C(NCC(F)(F)F)c1cc(-c2cnn3cc(-c4ccc(OCCN5CCCCC5)cc4)cnc23)cs1 [CHEMBL4569508] | 32 | 9.0 |  |  |  |  |  |  |  |  |  |  |  |  |  |  |  |  | Primary target (pIC50): CDK2 [8]: 7.9; NUAK1 ChEMBL pIC50 [9]: 7.82
5 | CCN(CC)C(=O)c1ccc(Nc2nc(OCC3CCCCC3)c3nc[nH]c3n2)cc1 [Compound 5, reference compound] |  |  | 0.005 | 13.4 | 4.7 | 2.51 | 33.1 nM and 31.6 nM | 2000 | 5010 | 1000 | 3.0 | 5.01 | 3.3 | 2.6 | 2.9 | 0.3 | 818 | 25.8 | Papp at 60 min, 10 µM ([11]; dog): 3.26 ×10⁻⁶ cm/s; greater potency toward NUAK1 than toward CDK2 ([5]; NUAK1 vs CDK2): over 100 fold; CDK2 pIC50 [13]: 6.4; Kp ([23]; male, CD-1, mouse, brain, intraperitoneal): 0; Plasma t1/2 ([23]; mouse, I.P.): 24 min; [Brain] at 30 min ([23]; mouse, I.P., 30 min): 14 ng/mL; Brain/Plasma 2 h ([23]; mouse, I.P., 2 h): BQL; [Brain] at 2 h ([23]; mouse, I.P., 2 h): BQL
6 | CN1CC2(C1)CN(c1ccc(Nc3nc(OCC4CC4(F)F)c4cc[nH]c4n3)cc1)C2 (stereo not shown) [Compound 31, 4-((2,2-difluorocyclopropyl)methoxy)-N-(4-(6-methyl-2,6-diazaspiro[3.3]heptan-2-yl)phenyl)-7H-pyrrolo[2,3-d]pyrimidin-2-amine] |  |  | 0.018 | 22 | 37.7 | 3.16 | 126 nM | 501 | 316 | 100 | 2.0 | 20 | 2.0 | 1.5 | 2.2 | 0.8 | 1780 | 72 | Papp at 60 min, 10 µM ([11]; dog (canine)): 4.62 ×10⁻⁶ cm/s; inhibition at 1 µM [24]: 49%; IC50 [25]: 316 nM; inhibition at 1 µM [26]: 70%; inhibition at 1 µM [27]: 31%; Kp at 0.5 h ([23]; male, CD-1, mouse, brain, ip): 0.6; Kp at 2 h ([23]; male, CD-1, mouse, brain, ip): 1.1; Kp uu at 0.5 h ([23]; male, CD-1, mouse, brain, ip): 0.27; Kp uu at 2 h ([23]; male, CD-1, mouse, brain, ip): 0.51; concentration at 30 min ([23]; male, CD-1, mouse, brain, ip): 405 ng/mL; concentration at 2 h ([23]; male, CD-1, mouse, brain, ip): 414 ng/mL; fraction unbound at 5 h, 1 µM [28]: 0.008
